{"source": "patent US10874684B2", "about": "“Liponucleotide-based therapy for ARDS” (Ohio State Innovation Foundation, priority 2016, dated 2020)", "key": {"influenza-infected mice [1]": {"tested_on": "influenza-infected mice", "assay": "Effect of influenza infection and CDP-choline treatment on lung inflammation", "format": "in vivo", "conditions": "day 6 flu; 100 μg/mouse i.p. daily from 1-5 days post-infection"}, "[2]": {"tested_on": "ATII cells from influenza A/WSN/33 (H1N1)-infected mice", "assay": "Effect of influenza infection and CDP-choline treatment on ATII cell ultrastructure (transmission electron micrographs)", "format": "in vivo, mouse", "source_text": "FIG. 14 is a group of three transmission electron micrographs showing effects of CDP-choline treatment on ultrastructure of ATII cell lamellar bodies (composed of surfactant lipids and proteins). Relative to mock-infected controls, lamellar bodies in ATII cells from influenza A/WSN/33 (H1N1)-infected mice are smaller and have disordered lamellae.\nFIG. 15 is a group of 3 transmission electron micrographs showing effects of influenza infection on ultrastructure of ATII cell mitochondria (Mi). Relative to mock-infected controls (left), Mi in ATII cells from A/WSN/33 (H1N1)-infected mice (center) are fewer in number, less electron dense, and have disordered membranes and cristae."}, "[3]": {"tested_on": "influenza A/WSN/33 (H1N1)-infected mice", "assay": "Effect of influenza infection and i.p. liponucleotide treatment on lung function", "format": "in vivo, mouse", "conditions": "for CST / HR (bpm) / RBASAL / SaO2 (%) / WET:DRY: day 6", "source_text": "CDP-choline improved oxygenation. SaO2 increased from approximately 85% to approximately 96%. This is equivalent to an increase in PaO2 from approximately 65 mmHg to approximately 85 mmHg. It is also equivalent to an increase in O2 carrying capacity of blood (CaO2) from approximately 88% to approximately 97% of normal. Patients with an SaO2 of 96% or a […] would not require additional treatment"}, "[4]": {"tested_on": "mice with ARDS induced by intranasal bleomycin", "assay": "Bleomycin-induced ARDS in mice, i.p. liponucleotide treatment", "format": "in vivo", "conditions": "day 7 after intranasal bleomycin 0.1 mg/mouse; daily i.p. from days 1-6"}, "[5]": {"tested_on": "alveolar type II (ATII) epithelial cells isolated 6 days post-influenza infection", "assay": "Effect of influenza infection and CDP-choline treatment on mitochondrial function (Seahorse MitoStress test on isolated ATII cells)", "format": "in vivo, mouse", "description": "FIG. 17 is a plot showing effect of daily i.p. treatment with CDP-choline (CDP-CHO, 100 μg/mouse) from 1-5 days post-influenza infection on basal O2 consumption rate (OCR) of alveolar type II (ATII) epithelial cells isolated at 6 days post-mock infection or 6 days post-influenza infection and OCR after subsequent treatment of the same ATII cells with oligomycin (1 μM). **=P<0.005, #=P<0.001.\nFIG. 18 is a plot showing effect of daily i.p. treatment with CDP-choline (CDP-CHO, 100 μg/mouse) from 1-5 days post-influenza infection on ATP production, non-mitochondrial (non-mt) respiration, and proton (H^+) leak of alveolar type II (ATII) epithelial cells isolated at 6 days post-mock infection or 6 days post-influenza infection. *=P<0.05, #=P<0.001."}, "influenza-infected mice [6]": {"tested_on": "influenza-infected mice", "assay": "Treatment with CDP-choline precursors (choline, CTP) in influenza-infected mice, arterial oxygenation", "format": "in vivo", "conditions": "day 6 post-influenza infection; daily i.p. 100 μg/mouse from 1-5 days post-infection; compared with CDP-choline", "description": "FIG. 16 is a plot showing effect of daily i.p. treatment with choline (100 μg/mouse), cytidine triphosphate (CTP, 100 μg/mouse), and choline+CTP from 1-5 days post-influenza infection on mouse O2 sats (SaO2) at day 6 post-influenza infection."}, "[7]": {"conditions": "day 6 flu, 100 μg/mouse i.p. daily from 1-5 days post-infection"}, "[8]": {"conditions": "influenza-infected mice, 100 μg/mouse i.p. on day 5 only"}, "[9]": {"conditions": "influenza-infected mice, i.p. daily from 1-5 days post-infection"}, "[10]": {"conditions": "influenza-infected mice, i.p. daily from 1-5 days post-infection, CDP-CHO/CDP-ETH 100 μg/mouse, CDP-DAG 10 μg/mouse"}, "[11]": {"conditions": "ATII cells isolated 6 days post-influenza infection, Seahorse MitoStress, effect on influenza-induced impairment"}}, "note": "“Also recorded” adds a separate entry of the source. Marks after values point to notes of the source that are not given here.", "data": [{"smiles": "C[N+](C)(C)CCOP(=O)(O)OP(=O)(O)OC[C@H]1O[C@@H](n2ccc(N)nc2=O)C(O)C1O", "note": "(some centres unmarked) [CDP-CHO, Cytidine diphosphate-choline]", "values": [{"measurement": "BALF ALVEOLAR MACS (×10^6/ml)", "setting": "influenza-infected mice [1]", "result": "1.08 ± 0.21 ×10^6/ml"}, {"measurement": "BALF NEUTROPHILS (×10^6/ml)", "setting": "influenza-infected mice [1]", "result": "0.45 ± 0.07 ×10^6/ml"}, {"measurement": "BALF PC", "setting": "influenza-infected mice [1]", "result": "1.61 ± 0.45"}, {"measurement": "VIRAL TITER (log PFU/g)", "setting": "influenza-infected mice [1]", "result": "5.32 ± 0.07", "unit": "log PFU/g"}, {"measurement": "ATII CELL AREA (μm^2)", "setting": "[2]; [7]", "result": "53.64 ± 5.63* μm^2"}, {"measurement": "LAMELLAR BODIES/CELL", "setting": "[2]; [7]", "result": "8.1 ± 1.16"}, {"measurement": "LAMELLAR BODY AREA (μm^2)", "setting": "[2]; [7]", "result": "0.41 ± 0.04* μm^2"}, {"measurement": "MITOCHONDRIAL/CELL", "setting": "[2]; [7]", "result": "14.5 ± 1.78"}, {"measurement": "MIT[…] (μm^2)", "setting": "[2]; [7]", "result": "0.34 ± 0.01* μm^2"}, {"measurement": "ATII cell lamellar body morphology", "setting": "[2]; transmission electron micrographs, A/WSN/33 (H1N1)-infected mice", "result": "improves lamellar body morphology"}, {"measurement": "ATII cell mitochondria (Mi) morphology", "setting": "[2]; transmission electron micrographs, A/WSN/33 (H1N1)-infected mice, listed as CDP-choline", "result": "more electron-dense and have more normal cristae; also recorded: display normal morphology"}, {"measurement": "PaO2 equivalent after treatment", "setting": "[3]; equivalent of SaO2 increase, from approximately 65 mmHg", "result": "approximately 85 mmHg"}, {"measurement": "O2 carrying capacity of blood (CaO2) after treatment", "setting": "[3]; equivalent of SaO2 increase, from approximately 88%", "result": "approximately 97 % of normal"}, {"measurement": "cardiac function", "setting": "[3]; influenza-infected mice", "result": "improved cardiac function"}, {"measurement": "effects of single dose treatment late in infection versus daily treatment", "setting": "[3]; influenza-infected mice", "result": "as good as those of daily treatment"}, {"measurement": "lung function", "setting": "[3]; influenza-infected mice", "result": "better lung function"}, {"measurement": "pulmonary edema", "setting": "[3]; influenza-infected mice", "result": "reduced pulmonary edema"}, {"measurement": "CST", "setting": "[3]; [8]", "result": "0.05 ± 0.006"}, {"measurement": "HR (bpm)", "setting": "[3]; [8]", "result": "550 ± 10", "unit": "bpm"}, {"measurement": "RBASAL", "setting": "[3]; [8]", "result": "1.63 ± 0.22"}, {"measurement": "SaO2 (%)", "setting": "[3]; [8]", "result": "92.9 ± 1.5", "unit": "%"}, {"measurement": "WET:DRY", "setting": "[3]; [8]", "result": "6.2 ± 0.2"}, {"measurement": "CST", "setting": "[3]; [9]", "result": "0.05 ± 0.002"}, {"measurement": "HR (bpm)", "setting": "[3]; [9]", "result": "570 ± 10", "unit": "bpm"}, {"measurement": "RBASAL", "setting": "[3]; [9]", "result": "1.96 ± 0.12"}, {"measurement": "WET:DRY", "setting": "[3]; [9]", "result": "6.2 ± 0.4"}, {"measurement": "SaO2 (%)", "setting": "[3]; [10]", "result": "93.5 ± 1.0", "unit": "%"}, {"measurement": "SaO2 after treatment", "setting": "[3]; influenza-infected mice, increased from approximately 85%", "result": "approximately 96%"}, {"measurement": "mouse O2 sats (SaO2), hypoxemia", "setting": "[4]", "result": "can attenuate hypoxemia"}, {"measurement": "mouse weight loss (% of starting body weight), cachexia", "setting": "[4]", "result": "no such beneficial effect"}, {"measurement": "basal O2 consumption rate (OCR), mitochondrial oxidative phosphorylation", "setting": "[5]; ATII cells isolated 6 days post-influenza infection, 100 μg/mouse i.p. daily days 1-5, effect on influenza-induced impairment", "result": "reversed"}, {"measurement": "ATP production", "setting": "[5]; [11]", "result": "reversed"}, {"measurement": "non-mitochondrial (non-mt) respiration", "setting": "[5]; [11]", "result": "reversed"}, {"measurement": "proton (H+) leak (coupling efficiency)", "setting": "[5]; [11]", "result": "reversed"}, {"measurement": "OCR after oligomycin (ATP synthase activity)", "setting": "[5]; ATII cells isolated 6 days post-influenza infection, oligomycin 1 μM, effect on influenza-induced impairment", "result": "reversed"}, {"measurement": "MITOCHONDRIAL MEMBRANE POTENTIAL (ψm; DilC1(5) MCF)", "setting": "[5]; [7]", "result": "10.14 ± 2.3*"}, {"measurement": "MIT[…] PRODUCTION", "setting": "[5]; [7]", "result": "36.91 ± 6.82#"}]}, {"smiles": "CCCCCCCCCCCCCCCC(=O)OC[C@H](COP(=O)(O)OP(=O)(O)OC[C@H]1O[C@@H](n2ccc(N)nc2=O)[C@H](O)[C@@H]1O)OC(=O)CCCCCCCCCCCCCCC", "note": "[CDP-DAG, CDP-diacylglycerol]", "values": [{"measurement": "HR (bpm)", "setting": "[3]; [9]", "result": "600 ± 10", "unit": "bpm"}, {"measurement": "WET:DRY", "setting": "[3]; [9]", "result": "5.8 ± 0.1"}, {"measurement": "SaO2 (%)", "setting": "[3]; [10]", "result": "95.2 ± 1.6", "unit": "%"}]}, {"smiles": "NCCOP(=O)(O)OP(=O)(O)OC[C@H]1O[C@@H](n2ccc(N)nc2=O)[C@H](O)[C@@H]1O", "note": "[CDP-ETH, CDP-ethanolamine]", "values": [{"measurement": "HR (bpm)", "setting": "[3]; [9]", "result": "540 ± 20", "unit": "bpm"}, {"measurement": "WET:DRY", "setting": "[3]; [9]", "result": "6.5 ± 0.4"}, {"measurement": "SaO2 (%)", "setting": "[3]; [10]", "result": "91.1 ± 1.5", "unit": "%"}]}, {"smiles": "Nc1ccn([C@@H]2O[C@H](COP(=O)(O)OP(=O)(O)OP(=O)(O)O)[C@@H](O)[C@H]2O)c(=O)n1", "note": "[CTP, cytidine triphosphate]", "values": [{"measurement": "beneficial effect on arterial oxygenation, mouse O2 sats (SaO2)", "setting": "influenza-infected mice [6]", "result": "cannot be reproduced"}]}]}
